# In patent US20230202997A1, “CHROMANOL, QUINONE OR HYDROQUINONE COMPOUNDS FOR TREATMENT OF SEPSIS” (Sulfateq B.V., priority 2020, published 2023):
# Experiments:
# [1] = test system: CLP-induced sepsis; test: Cecal ligation and puncture (CLP) sepsis model, xyphoid temperature; type: in vivo; settings: CLP mice; SUL-138 5 mg/kg s.c. 2 hours before and 8 hours after surgery; 24 hr after procedure
# Experimental: Male C57/BL6J mice were housed at room temperature at a light-dark cycle of 12:12 hour. Animals were fed ad libitum using standard animal lab chow and they had free access to drinking water at all times.
# (§1) To induce sepsis, the standard cecal ligation and puncture (CLP) model was used. Animals were anesthetized by subcutaneous injection of xylazine/ketamine (100/10 mg/kg), followed by administration of buprenorphine (0.1 mg/kg) as analgesic. After confirmation of anesthesia by lack of response to paw pinch and eye reflex, the abdomen was shaved, cleaned, and de-germed using a povidone-iodine solution before a 1-cm midline incision was made. The cecum was ligated with a 6-0 suture at half the distance between distal pole and the base of the cecum and punctured once with a 21-Gauge needle (‘through-and-through’ from mesenteric toward anti-mesenteric direction) which is an accepted model for ‘mid-grade’ sepsis. A small amount of stool (2-3 mm) was then extruded to ensure wound patency. The cecum was repositioned, thereby taking care not to spill fecal material on the wound edges, followed by closure of the abdomen by running sutures to the abdominal musculature and short interrupted sutures to the skin. Next, 1 ml of saline (warmed, 0.9% NaCl s.c.) was administered to compensate for the expected relative volume depletion due to the onset of sepsis.
# Mice recovered at 26-28° C. […]
# [2] = test system: plasma levels of IL-6, TNF-α and IL12; test: CLP sepsis model, plasma cytokines by ELISA; type: in vivo; settings: CLP mice; SUL-138 5 mg/kg s.c. 2 h before and 8 h after surgery; 24 hours
# Experimental: as §1
# Mice in the SUL-138 treated groups were injection with SUL-138 (dissolved in saline, 5 mg/kg, s.c.) at 2 hours before and 8 hours after surgery, while mice in the other groups were injected with an equal volume of saline at these time-points.
# Mice were sacrificed 24 hours after the procedure. Upon euthanization, EDTA-anticoagulated blood was separated into plasma by centrifugation at 1,600 g for 10 min and serum by allowing it to clot for 30 min followed by centrifugation at 3,000 g for 10 min.
# To quantify the effect of sepsis severity and treatment with SUL-138 on systemic inflammation, levels of TNFα, IL-6 and IL-12 in plasma were measured using Mouse DuoSet ELISAs (DY410, DY406 and D419, respectively, RnD-Systems), according to the manufacturer's instructions. […] The optical density (OD) was measured using a microplate reader set to 450 nm, while readings at 540 nm were subtracted as correction to increase accuracy.
# [3] = test system: mitochondrial oxidative stress in HUVEC; test: LPS-induced mitochondrial superoxide in HUVEC (MitoSox); type: cell-based, Human; settings: 10 μM for 30 min, LPS 100 ng/ml 24 hours
# Experimental: (§2) Human Umbilical Cord Endothelial Cells (HUVEC, Lonza CC-2519) were maintained on 1% gelatin-coated culture flasks in RPMI1640 medium containing 20% fetal bovine serum, 2 mM Glutamine (Sigma-Aldrich), 1% Penicillin-Streptomycin solution (Sigma-Aldrich) and 50 μg/ml Bovine Pituitary Extract (Invitrogen). HUVEC were passaged by trypsinization when the cultures reach a confluency of 70%. For all experiments, HUVEC were seeded at 0.6·10^5 cells/cm^2 and allowed to adhere for 24 hours.
# The production of cellular and mitochondrial oxidative stress was measured using fluorescent probes for cellular and mitochondrial superoxide, i.e. dihydroethidium (DHE) and MitoSox (ThermoFisher), respectively. HUVEC were incubated with BN-80933, SUL-138 or SUL-150 (all 10 μM) for 30 min. Next, HUVEC were exposed to LPS (100 ng/ml) for an additional 24 hours. In the final hour of incubation, 2.5 μM of DHE or MitoSox was applied to each sample. HUVEC were washed in PBS and fixed in 4% paraformaldehyde at room temperature for 15 min. Nuclear staining was performed by 5 μM […] (DAPI) and fluorescence intensity of the samples was recorded in a CLARIOStar Plus plate reader (BMG Labtech) equipped with the appropriate filter sets. Fluorescence recordings for DHE and MitoSox were corrected for DAPI fluorescence. All experiments were performed in quadruplicate.
# [4] = test system: HUVEC; test: Cell viability after hypothermia-rewarming stress (Neutral Red); type: cell-based, Human; settings: 10 μM for 1 hour, 4° C. for 24 hours followed by 37° C. for 3 hours
# Experimental: as §2
# HUVEC were pre-treated with BN-80933, SUL-138 or SUL-150 (all 10 μM) for 1 hour in a humidified incubator at 37° C. Following pre-treatment, HUVEC were placed in a cold room (2-8° C.) for 24 hours and subsequently placed back at 37° C. for a 3 hour rewarming period. After 1 hour of rewarming, cell culture medium was replaced by prewarmed and filtered 0.4 mg/mL Neutral Red (#N463 8, Sigma-Aldrich) in culture medium. After the remaining 2 hour rewarming period, HUVEC were washed with PBS and NRU was solubilized in 100 μL resorption solution (50% ethanol, 1% ascetic acid in dH2O). The absorbance was measured at a wavelength of 550 nm on a BioTek ELx808 plate reader. The recorded OD550 nm values were normalized to control samples that were maintained at 37° C. at all times, which were assumed to be 100% viable.
structure (smiles),measurement,setting,value
"Cc1c(C)c2c(c(C)c1O)CC[C@@](C)(C(=O)N1CCN(CCO)CC1)O2 [SUL-138, (S)-(6-hydroxy-2,5,7,8-tetramethylchroman-2-yl)(4-(2-hydroxyethyl)piperazin-1-yl)methanone]",xiphoid temperature,[1],restored after 24 hours
same,plasma level of IL12,[2],decreased by treatment with SUL-138 to levels close to untreated control
same,plasma level of IL-6,[2],decreased by treatment with SUL-138 to levels close to untreated control
same,plasma level of TNF-α,[2],"clearly lower, but the difference did not reach significance"
same,LPS-induced mitochondrial oxidative stress (MitoSox),[3],precluded the LPS-induced increase in mitochondrial oxidative stress
same,reduction in cell viability versus normothermic control cells,[4],~15%
